Test results: patent publication US11203598B2, “Compounds for repressing cancer cell growth” (Institute For Cancer Research, priority 2018, dated 2021)

Key:
Assay type in all cases: cell-based, human
[1] = tested on: p53 reporter (PG13-luc) in SW480 cells; test: luciferase-based p53-reporter activity assay
Experimental: High-throughput screening was performed using a non-invasive bioluminescence imaging in human colorectal cancer cell lines that stably express a p53-regulated luciferase reporter. Cells were seeded in 96-well plates (Greiner Bio-One) at a density of 1×10^4 cells per well. p53 transcriptional activity was imaged using an IVIS imaging system for a period of 3-4 hours.
Cell-based screening of p53 transcriptional activity for small molecule CB002 was accomplished using noninvasive bioluminescence imaging in human colorectal cancer cell lines SW480, DLD-1, DLD-1 p73^−/−, HCT116, and HCT116 p53^−/−. These cell lines stably express a p53 reporter, PG13-luc. Cells were seeded in opaque 96-well culture at a density of 5×10^4 cells/well. The cells were treated with CB002 at ranging doses with DMSO controls. Bioluminescence in cells was imaged for p53 transcriptional activity at 2 hours and 24 hours using IVIS imaging system (Xenogen).
In order to identify small molecules that could restore the p53 signaling pathway, 50,000 small molecules from the Chembridge Library were screened using a firefly luciferase human p53 reporter assay system. SW480 colorectal cancer cells that stably express the human p53 reporter were treated with compounds at various concentrations from 0-100 μM for 2 and 24 hours. […] To further validate the effects of CB002, the screening was expanded by testing effects on p53-dependent reporter activity in DLD-1, wild-type HCT116, and p53-null colorectal cancer HCT116 cell lines. […] Referring to FIG. 1, representative images of luciferase-based p53-reporter activity assays are shown at 3 hours (Panel A). Quantification of the luciferase-based p53-reporter activity assays in three different cell lines incubated from 3-24 hours with CB002 are shown (Panels B-D). p53-reporter activity assays are shown at 2 hours for HCT116 p53-null cells (Panel E).

SW480 cells = test: apoptosis assay, sub-G1 analysis (propidium iodide, flow cytometry); settings: for sub-G1 fraction: dose dependent, over untreated controls
Experimental: Apoptotic cells were quantified by sub-G1 analysis. Cells were seeded at a density of 2.5×10^5 to 5×10^5 in a 6-well plate and treated for 48-72 hours. After treatment, adherent cells were trypsinized and collected along with floating cells, washed with PBS and fixed in 70% ethanol. Cells were then incubated in a Phosphate-citric acid buffer (0.2 M Na2HPO4+0.1 M Citric Acid, pH 7.8) at room temperature for 5 minutes, spun down and resuspended for staining with 50 μg/mL propidium iodide (PI) in the presence of 250 μg/mL pancreatic ribonuclease (RNase A). Sub-G1 analyses were performed using an Epics Elite Epics flow cytometer (Coulter-Beckman).
(§1) Cells were seeded out at 1×10^6 cells/well on six well plates and treated with CB002 and Analog 11 at ranging doses with DMSO controls. Cells were harvested after 72 hours of treatment, all cells including floating cells were fixed with ethanol and stained with Propidium Iodide and then analyzed using Epics Elite flow cytometer to measure the DNA content of the stained cells.

HCT116 cells = test: FACS sub-G1 analysis; settings: 72 hours, dose dependent, over untreated controls
Experimental: as §1

HCT116 p53-null cells = test: FACS sub-G1 analysis; settings: 72 hours, dose dependent, over untreated controls
Experimental: as §1

[2] = tested on: p53 pathway proteins in SW480 cells; test: Western blot of p53, p53 targets, apoptosis and autophagy markers; settings: for Noxa expression: 24 hour, 100 μM CB002, 25 NM Analog 4, 100 μM Analog 11; for mutant p53 protein level: varying doses, anti-p53 (DO-1)
Experimental: (§2) After treatment, cells were harvested by trypsinization, washed with PBS, and lysed with RIPA buffer (Sigma-Aldrich) for 30 minutes to 1 hour at 4° C. Protein lysates were spun down and supernatant was collected. Protein quantification was performed using a Pierce™ BCA Protein Assay Kit (Thermo Fisher Scientific). 1×NuPAGE® LDS sample buffer (Thermo Fisher Scientific) and 2-Mercaptoethanol as the reducing agent (Sigma-Aldrich) were added to protein lysates, followed by boiling for 15 minutes at 95° C. Equal total protein amounts samples were loaded into NuPAGE™ Novex™ 4-12% Bis-Tris Protein Gels (1.5 mm, Thermo Fisher Scientific) and gel eletrophoresis was performed with NuPAGE™ MES SDS Running Buffer. Proteins were transferred onto an Immobilon-P membrane (PVDF, EMD Millipore) using a Bio-Rad system with a 10% Tris-Glycine and 10% methanol transfer buffer diluted in distilled and deionized water. After transfer, membranes were blocked with 10% milk in TBST solution and then incubated overnight with primary antibody, washed with TBST and incubated with secondary antibody for 1 hour. Incubations were performed in 5% milk in TBST solution. Signal was detected by using a chemiluminescent detection kit, followed by autoradiography. The following antibodies were used: p53 (DO-1, 1:1000, Santa Cruz), p73 (1:1000, Bethyl Laboratories), p21 and NOXA (1:250, EMD Millipore), DR5, FADD, cleaved caspase 3, cleaved caspase 8, cleaved PARP, and LC3B (1:1000, Cell Signaling), and β-actin (1:10000, Sigma).
(§3) Proteins were isolated using NP40 Lysis Buffer (20 mmol/L Tris-HCl (pH 7.4), 150 mmol/L NaCl, 5 mmol/L EDTA, 50 mmol/L NaF, 1 mmol/L glycerophosphate, 5 mmol/L Na4P2O7, 0.5% NP40, and complete protease inhibitor cocktail (Roche)) and electrophoresed through 4-12% SDS-PAGE followed by semi-dry transfer to PVDF membranes. The PVDF membranes were incubated with different antibodies including p21 (OP64-100UG, EMD Millipore (world wide web at emdmillipore.com/US/en/product/Antip21WAF1-(Ab-1)-Mouse-mAb-(EA10), EMD_BIO-OP64)), PUMA (12450S, Cell Signaling Technology, world wide web at cellsignal.com/products/primary-antibodies/puma-d30c10-rabbit-mab/12450), DR5 (3696S, Cell Signaling Technology, world wide web at cellsignal.com/products/primary-antibodies/dr5-antibody/3696?N=4294956287&Ntt=3696s&fromPage=plp& requestid=541668), p53(sc-126, Santa Cruz, world wide web at scbt.com/scbt/fr/product/p53-antibody-do-1), and RAN (610341, BD Transduction Laboratories, world wide web at bdbiosciences.com/us/reagents/research/antibodies-buffers/cell-biologyreagents/cell-biology-antibodies/purified-mouse-anti-ran-20ran/p/610341) in blocking buffer at 4° C. overnight. Bound antibody will be detected using IRDye secondary antibodies (LI-COR Biosciences,) in Odyssey blocking buffer for 1 hour then imaged using the ODYSSEY infrared imaging system.

[3] = tested on: wild-type p53 and p53 targets in HCT116 cells; test: Western blot of p53 and p53 targets; settings: for wild-type p53 protein level: 24 hours, increasing dose
Experimental: as §2, §3

For `Cn1c(=O)c2c(nc(Nc3ccccc3)n2C)n(C)c1=O` [Analog 11, 8-anilino-1,3,7-trimethyl-3,7-dihydro-1Hpurine-2,6-dione], the p53 responsive bioluminescence ([1]; 0 to 20 μmol/L) was “increased p53 responsive bioluminescence in a dose dependent manner”, the sub-G1 fraction (SW480 cells; 72 hours) was “increased cells in sub-G1 fraction” and the sub-G1 fraction (HCT116 cells) was “increased cells in sub-G1 fraction”. The sub-G1 fraction (HCT116 p53-null cells) was “increased cells in sub-G1 fraction”, the Noxa expression [2] was “Induction of Noxa expression” and the “mutant p53 protein level” value ([2]; 24 hours) was “decrease moderately”. For the same compound, the PUMA expression ([3]; 8 and 24 hours) was “increase only at 24 hours”, the p21 protein level ([3]; 8 and 24 hours) was “increase moderately in a dose dependent fashion” and the “wild-type p53 protein level” value [3] was “moderate increase in wild-type p53”.

With `Cn1c(=O)c2[nH]c(Nc3ccccc3)nc2n(C)c1=O` [CB002, 8-anilino-1,3-dimethyl-3,7-dihydro-1H-purine-2,6-dione] the “p53 luciferase reporter activity” value ([1]; 0-100 μM, 2 and 24 hours) was “activating the luciferase reporter in a dose-dependent manner”, the sub-G1 content (SW480 cells; 96 μM, 48 hours, parental SW480 (NOXA experiment), DMSO 4.5%) was 19% and the sub-G1 population (SW480 cells; 96 μM, 48 hours, DMSO control 8.7%) was 32.6%. The “increase of cells in sub-G1” value (SW480 cells; 200 μM, 72 hours) was 20%, the sub-G1 fraction (SW480 cells; 72 hours) was “increased cells in sub-G1 fraction” and the sub-G1 fraction (HCT116 cells) was “increased cells in sub-G1 fraction”. For the same compound, the sub-G1 fraction (HCT116 p53-null cells) was “increased cells in sub-G1 fraction”, the Noxa protein expression ([2]; 50 μM and 96 μM) was “increased” and the “expression of p21 and DR5” value ([2]; 12, 25, and 50 μM, 16 hours) was “increase the expression”. The “p53 protein expression level (mutant p53)” value ([2]; 12, 25, and 50 μM, 16 hours, versus DMSO) was “constant p53 protein expression levels”, the “cleaved PARP expression” value ([2]; 12, 25, and 50 μM, versus vehicle) was “observed to increase” and the “LC3B expression (autophagy marker)” value ([2]; 50 and 96 μM) was “induce the expression of LC3B”. For the same compound, the Noxa expression [2] was “Induction of Noxa expression”, the “mutant p53 protein level” value ([2]; 24 hours) was “decrease significantly” and the “cleaved caspase 3 and cleaved PARP expression” value ([2]; DR5 siRNA knockdown, 50 and 96 μM) was “continued to induce the expression”. For the same compound, the “cleaved PARP expression” value ([2]; FADD knockdown cells, 24 hours) was “able to induce the expression of cleaved PARP”, the LC3B expression ([2]; NOXA knock-down cells, 50 and 96 μM) was “failed to induce LC3B expression” and the “c-caspase 3 and cleaved PARP expression” value ([2]; NOXA shRNA knockdown, 50 and 96 μM) was “did not induce the expression of apoptotic markers”. The PARP cleavage ([2]; atg5 siRNA knockdown, 16 and 24 hours) was “complete loss of PARP cleavage”, the “cleaved caspase 8 and cleaved PARP” value ([2]; combination with 50 μM chloroquine, 24 hours) was “reduced compared to CB002 alone” and the “expression of p21, DR5 and PARP cleavage” value ([2]; p73 siRNA knockdown cells) was “increase the expression of p53 target genes p21 and DR5, and associated PARP cleavage”. For the same compound, the p21 protein level ([3]; 8 and 24 hours) was “increase moderately in a dose dependent fashion”, the “wild-type p53 expression” value ([3]; 50 and 100 μM) was “unable to decrease the expression of wild-type p53” and the “wild-type p53 protein level” value [3] was “moderate increase in wild-type p53”.
